Target: T1, BTK recombinant human protein (Homo sapiens, UniProt Q06187)
T1 construct: purchased Thermo PV3363
Experiment: Inhibitory activity against BTK (HTRF KinEASE-TK kit)
Assay type: biochemical
Conditions: 2 nM BTK, 10 µM ATP, 0.5 hours preincubation at 25°C; read-out: IC50 values of inhibitory activity against BTK
Experimental: Test example 1: Inhibitory activity of compounds of the present disclosure against BTK • I. Experimental materials and instruments • 1. BTK recombinant human protein (Thermo, PV3363) • 2. HTRF KinEASE-TK kit (Cisbio, 62TK0PEC) • 3. 1 M MgCl2 (Thermo, AM9530G) • 4. 1 M MnCl2 (Sigma, M1787-100ML) • 5. Adenosine 5'-triphosphate (ATP) (New England Biolabs, P0756L) • 6. DTT 2M (Sangon Biotech, B645939) • 7. Ultrapure water (Invitrogen, 10977-015) • 8. OptiPlate-384, white opaque 384-well microplate (PerkinElmer, 6007290) • 9. 96-well round-bottom plate (Corning, 3788) • 10. Biochemical incubator (Shanghai Boxun Medical & Biological Instruments Co., Ltd., BSP-100) • 11. 15-mL centrifuge tube (Corning) • 12. Benchtop high-speed centrifuge (Changsha Yingtai Instrument Co., Ltd., TD4N) • 13. Multifunctional microplate reader (PerkinElmer, EnVision) • 14. Bravo liquid handling platform (Agilent Technologies, SGC120TH34702) • II. Experimental procedure
The HTRF KinEASE-TK kit is designed to detect changes in BTK enzyme activity based on two technologies, i.e., fluorescence resonance energy transfer and time-resolved fluorescence. The kit is operated in two stages: 1) enzyme reaction stage: the enzyme reaction is initiated by adding ATP, where the enzyme phosphorylates the substrate, and the compounds are then added to competitively bind to BTK against ATP, thereby inhibiting substrate phosphorylation; and 2) detection stage: after the enzyme reaction is complete, a detection reagent is added to terminate the reaction. Different groups on the phosphorylated substrate bind to the energy donor and energy acceptor, respectively, bringing the two into close proximity. During the instrumental readout, the energy donor is excited by an external light source, which enables resonance energy transfer to the proximal energy acceptor. The acceptor, in turn, becomes excited and emits light at a specific wavelength. Thus, changes in enzyme activity can be detected by measuring the signal values, and the inhibition rate of the compounds against the target enzyme can be calculated, thereby evaluating the inhibitory effect of the compounds on BTK enzyme activity.
Preparation of enzyme reaction buffer: 5× Kinase Buffer was diluted 5-fold with ultrapure water, and then the stock solutions of MgCl2, MnCl2 and DTT were added. The final composition of the buffer was as follows: 1× Kinase Buffer, 10 mM MgCl2, 1 mM MnCl2, and 1 mM DTT.
(§1) Preparation of 5 × BTK working solution: The BTK (5.17 µM) stock solution was removed from -20°C storage. Given that the BTK concentration in the enzyme reaction system was 2 nM and the concentration of the 5× working solution was 10 nM, the BTK stock solution was diluted 517-fold with the enzyme reaction buffer according to the volume required for the experiment. The diluted solution was then added to the 384-well plate at 2 µL per well. The plate was placed in a plate spinner and centrifuged at 2000 rpm for 1 minute to bring the liquid to the bottom of the wells.
as §1, with “[…]. Given” for “Preparation of 5 × BTK working solution: The BTK (5.17 µM) stock solution was removed from -20°C storage. Given”, “the SEB” for “the BTK”, “was 50” for “was 2”, “was 250” for “was 10”, “diluted 10-fold” for “diluted 517-fold”
The test compounds dissolved in 100% DMSO at 20 mM were diluted with 100% DMSO to a concentration of 200 µM, which represents the 200× concentration of the highest compound concentration point in the reaction system. The compounds at this concentration were then subjected to 10-point 3-fold serial dilution with 100% DMSO. The positive control wells and negative control wells were set with 100% DMSO. […]

T1 sequence (Q06187 whole entry): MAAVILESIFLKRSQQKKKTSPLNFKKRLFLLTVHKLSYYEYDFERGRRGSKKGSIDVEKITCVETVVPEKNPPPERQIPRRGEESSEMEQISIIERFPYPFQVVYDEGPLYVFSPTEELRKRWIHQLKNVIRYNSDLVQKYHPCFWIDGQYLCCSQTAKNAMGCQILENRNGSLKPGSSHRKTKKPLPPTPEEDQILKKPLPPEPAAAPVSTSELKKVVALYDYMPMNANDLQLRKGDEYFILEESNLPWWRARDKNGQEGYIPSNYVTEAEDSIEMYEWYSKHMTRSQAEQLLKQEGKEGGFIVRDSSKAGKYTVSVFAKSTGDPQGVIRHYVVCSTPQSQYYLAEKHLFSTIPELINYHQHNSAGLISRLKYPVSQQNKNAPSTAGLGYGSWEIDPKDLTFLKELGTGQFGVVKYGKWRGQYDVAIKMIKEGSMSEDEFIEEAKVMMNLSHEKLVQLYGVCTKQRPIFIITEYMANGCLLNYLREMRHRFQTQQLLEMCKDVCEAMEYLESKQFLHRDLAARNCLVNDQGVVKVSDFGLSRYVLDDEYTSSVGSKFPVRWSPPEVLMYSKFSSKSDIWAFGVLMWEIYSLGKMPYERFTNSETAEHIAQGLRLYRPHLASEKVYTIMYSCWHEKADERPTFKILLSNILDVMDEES

IC50: 8.3 nM
Structure (SMILES): C=CC(=O)N(C)CCOc1c(N)ncnc1-c1cc(F)cc(NC(=O)c2cc3c(cc2F)C2(CC2)CO3)c1C [Example 3, N-(3-(6-amino-5-(2-(N-methacrylamido)ethoxy)pyrimidin-4-yl)-5-fluoro-2-methylphenyl)-5-fluoro-2H-spiro[benzofuran-3,1'-cyclopropane]-6-carboxamide]
